Data on four compounds can be found in patent US9303020B2, “Compounds for the treatment of hepatitis C” (Bristol-Myers Squibb Company, priority 2012, dated 2016).

Data set [1] relates to genotype 1b HCV replicon in Huh-7 cells. The experiment in a line: HCV replicon luciferase assay. The conditions noted are these: Hepatitis C virus, Huh-7, 72 h, Renilla luciferase, 3 days incubation. It counts as cell-based, HCV genotype 1b (human hepatocyte derived cell line Huh-7). As for the experimental part: The cell lines used to evaluate compounds consist of a human hepatocyte derived cell line (Huh-7) that constitutively expresses a genotype 1b HCV replicon containing a Renilla luciferase reporter gene. These cells were maintained in Dulbecco's modified Eagle medium (DMEM) containing 10% FBS, 100 U/mL penicillin/streptomycin and 1.0 mg/mL G418.
To evaluate compound efficacy, titrated compounds were transferred to sterile 384-well tissue culture treated plates, and the plates were seeded with HCV replicon cells (50 μL at a density of 2.4×10^3 cells/well) in DMEM containing 4% FBS (final DMSO concentration at 0.5%). After 3 days incubation at 37° C., cells were analyzed for Renilla Luciferase activity using the EnduRen substrate (Promega cat #E6485) according to the manufacturer's directions. Briefly, the EnduRen substrate was diluted in DMEM and then added to the plates to a final concentration of 7.5 μM. The plates were incubated for at least 1 h at 37° C. then read on a Viewlux Imager (PerkinElmer) using a luminescence program. The 50% effective concentration (EC50) was calculated using the four-parameter logistic formula noted above.
For orientation: Replicon systems follow genome replication, usually without infectious particles.

The target of data set [2] is T1, NS5B protein of HCV, genotype 1b (Hepatitis C virus genotype 1b, UniProt Q9WMX2).
T1 construct: The protein was expressed with an 18 amino acid C-terminal truncation to enhance the solubility; made in house; host or cells: E. coli BL21(DE3)
The experiment in a line: HCV NS5B RdRp enzyme assay. It counts as biochemical. Particulars: 7 nM NS5B enzyme, 4 hours at 30° C. As to the method: The cDNA encoding the NS5B protein of HCV, genotype 1b, was cloned into the pET21a expression vector. The protein was expressed with an 18 amino acid C-terminal truncation to enhance the solubility. The E. coli competent cell line BL21(DE3) was used for expression of the protein. Cultures were grown at 37° C. for ˜4 hours until the cultures reached an optical density of 2.0 at 600 nm. The cultures were cooled to 20° C. and induced with 1 mM IPTG. Fresh ampicillin was added to a final concentration of 50 μg/mL and the cells were grown overnight at 20° C.
Cell pellets (3 L) were lysed for purification to yield 15-24 mgs of purified NS5B. […]
Reactions were allowed to proceed for 4 hours at 30° C. and terminated by the addition of 50 mM EDTA (10 μL). After incubating for at least 15 minutes, plates were read on an Amersham LEADseeker multimodality imaging system.
IC50 values for compounds were determined using ten different [I]. IC50 values were calculated from the inhibition using the four-parameter logistic formula y=A+((B−A)/(1+((C/x)^D))), where A and B denote minimal and maximal % inhibition, respectively, C is the IC50, D is hill slope and x represents compound concentration.

For another data set, the system named is HCV. Particulars: extended dosing of the combination regimens with interferon and ribavirin; cited from earlier work.

T1 sequence (Q9WMX2 2420-2992): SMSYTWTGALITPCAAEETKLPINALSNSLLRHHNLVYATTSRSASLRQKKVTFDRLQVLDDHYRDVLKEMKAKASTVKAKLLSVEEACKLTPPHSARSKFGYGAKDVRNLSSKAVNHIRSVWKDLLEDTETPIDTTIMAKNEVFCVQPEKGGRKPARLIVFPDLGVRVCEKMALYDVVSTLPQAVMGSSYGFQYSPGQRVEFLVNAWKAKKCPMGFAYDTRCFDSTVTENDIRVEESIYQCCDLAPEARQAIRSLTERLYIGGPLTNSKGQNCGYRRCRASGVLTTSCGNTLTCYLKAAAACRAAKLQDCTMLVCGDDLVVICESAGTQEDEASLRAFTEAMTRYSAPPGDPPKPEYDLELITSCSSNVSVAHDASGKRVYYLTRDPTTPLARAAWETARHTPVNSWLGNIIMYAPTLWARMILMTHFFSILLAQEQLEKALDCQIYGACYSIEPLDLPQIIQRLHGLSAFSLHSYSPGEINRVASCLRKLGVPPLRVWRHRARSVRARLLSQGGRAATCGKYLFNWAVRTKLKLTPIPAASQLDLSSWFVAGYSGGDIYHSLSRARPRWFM

In data set [1], `CCN(c1cc2oc(-c3ccc(F)cc3)c(-c3ncc[nH]3)c2cc1-c1ccc(OC)c(C(=O)NC2(c3ncccn3)CC2)c1)S(C)(=O)=O` [Example 3, 5-(6-(N-ethylmethylsulfonamido)-2-(4-fluorophenyl)-3-(1H-imidazol-2-yl)benzofuran-5-yl)-2-methoxy-N-(1-(pyrimidin-2-yl)cyclopropyl)benzamide] displayed an EC50 of 9 nM.

As to `COc1cc(C)c(-c2ccc3oc(-c4ccc(F)cc4)c(-c4ncc[nH]4)c3c2F)cc1C(=O)NC1(c2ncccn2)CC1` [Example 1, 5-(4-fluoro-2-(4-fluorophenyl)-3-(1H-imidazol-2-yl)benzofuran-5-yl)-2-methoxy-4-methyl-N-(1-(pyrimidin-2-yl)cyclopropyl)benzamide], in data set [1], the EC50 was found to be 30 nM. Besides, the IC50 in data set [2] was found to be 30 nM.

In the case of `CNC(=O)c1c(-c2ccc(F)cc2)oc2cc(N(CCO)S(C)(=O)=O)c(C3CC3)cc12` [HCV-796], the “toxicity during extended dosing” value in the data set on HCV is reported as “hepatic toxicity”.

Regarding `CCNc1cc2oc(-c3ccc(F)cc3)c(-c3ncc[nH]3)c2cc1-c1ccc(OC)c(C(=O)NC2(c3ncccn3)CC2)c1` [Example 2, 5-(6-(ethylamino)-2-(4-fluorophenyl)-3-(1H-imidazol-2-yl)benzofuran-5-yl)-2-methoxy-N-(1-(pyrimidin-2-yl)cyclopropyl)benzamide], in data set [1], the EC50 amounted to 7.2 nM.

By EC50 is commonly meant the concentration at which the effect is half-maximal. As usually defined, the IC50 is the concentration at which inhibition is half-maximal. Low values mean inhibition by little substance, high ones a need for much substance.
